Results published in US20100158857A1, “Compositions and methods for the inhibition of endothelial nitric oxide synthase activity” (University Of utah Research Foundation, priority 2006, published 2010).

Assays:
C57BL/6 mice [1] = test: Systolic blood pressure by tail cuff method in IL-2 treated mice; type: in vivo
Procedure: Systolic blood pressure was measured via tail cuff method (Stoelting, Wood Dell, Ill.) using PowerLab digital signal transducer (AD instruments, Mountain View, Calif.). […] The lower limit of blood pressure detectable using this instrumentation is about 40 mm of Hg. This value of blood pressure was assigned whenever no detectable value could be obtained.
(§1) 1400 W was dissolved at a concentration of 1M in sterile PBS and administered via continuous subcutaneous infusion by Alzet mini osmotic pumps (Model 2001, Alzet Corporation, Cupertino, Calif.). Each pump contained 225 μL of solution that released a constant volume of 28 μL/day, resulting in a calculated delivery of 7 mg 1400 W/mouse/day.
(§2) MLA was dissolved in sterile ultra-filtered water at a concentration of 3.38M and loaded into pre-equilibrated osmotic pumps containing 225 μL of solution that released a constant volume of 28 μL/day, resulting in a calculated delivery of 18.5 mg MLA/mouse/day.

C57BL/6 mice [2] = test: VLS evaluation: [125I]-labeled albumin accumulation in peritoneal fluid of IL-2 treated mice; type: in vivo; settings: for Effect on IL-2 induced radio-albumin accumulation in peritoneal fluid / VLS: given with IL-2, M40403: iNOS WT or iNOS−/− mice, 1400 W: IL-2 treated mice; for [125I] labeled albumin retention in peritoneal fluid: MLA 18.5 mg/mouse/day s.c. during IL-2 treatment
Procedure: Peritoneal fluid was collected using blotting paper. Liver, spleen, intestines, kidneys, lungs and heart were also excised and analyzed for [^125l]-albumin accumulation. Data was expressed as percentage of radiolabeled albumin recovered from each tissue with the total amount recovered from each animal. This form of analysis minimizes differences induced by variability in injection technique.
as §1, §2

[3] = Retention of modified NOS inhibitors in the vasculature; settings: due to their size
peritoneal exudate cells = test: Inhibition of NO synthesis in IFNγ/LPS-stimulated peritoneal exudate cells (Griess reaction); type: cell-based; settings: 48 hours; highest concentration MLA 1 mM, Polymethylarginine 400 uM
Procedure: First, peritoneal exudate cells were elicited by thioglycolate. These cells were then harvested and cultured in 96 well microtiter wells at 1×10^6 overnight in DMEM media with 5% FCS. Media was then replaced with DMEM containing 50 Units/ml of IFNγ and 100 ng/ml bacterial lipopolysaccharide. Serial dilutions of either N^G-monomethy-L-larginine (MLA) or Polymethylarginine (poly-MLA 7-mer) were then added to experimental wells. The highest concentration of MLA was 1 mM and of Polymethylarginine was 400 uM.
The cultures were then incubated for 48 hours and culture supernatants were assayed for the NO metabolite nitrate using the Griess reaction after nitrate reduction.

[4] = iNOS−/− mice, given together with IL-2

CC(=N)NCc1cccc(CN)c1 [1400 W]
Systolic blood pressure (C57BL/6 mice [1]; mice treated with IL-2 plus 1400 W, continuous s.c. infusion 7 mg/mouse/day): 45±7 mm of Hg | Effect on IL-2 induced radio-albumin accumulation in peritoneal fluid / VLS (C57BL/6 mice [2]): did not inhibit

[Cl-].[Cl-].[Mn+2].c1cc2nc(c1)CN[C@@H]1CCCC[C@H]1NCCN[C@@H]1CCCC[C@H]1NC2 [M40403]
Systolic blood pressure (C57BL/6 mice [1]; [4]): 85±5 mm of Hg | Effect on IL-2 induced radio-albumin accumulation in peritoneal fluid / VLS (C57BL/6 mice [2]): did not reverse

CNC(=N)NCCC[C@H](NC(=O)[C@H](CCCNC(=N)NC)NC(=O)[C@H](CCCNC(=N)NC)NC(=O)[C@H](CCCNC(=N)NC)NC(=O)[C@H](CCCNC(=N)NC)NC(=O)[C@H](CCCNC(=N)NC)NC(=O)[C@@H](N)CCCNC(=N)NC)C(=O)O [poly-MLA, (N^G-mono-methyl-L-arginine)^7]
Retention in the vasculature [3]: retained in the vasculature

CNC(=N)NCCC[C@H](N)C(=O)O [MLA, N^G-monomethyl-L-arginine]
Systolic blood pressure (C57BL/6 mice [1]; [4]): 80±10 mm of Hg | [125I] labeled albumin retention in peritoneal fluid (C57BL/6 mice [2]; iNOS WT mice): 0.562±0.24% | [125I] labeled albumin retention in peritoneal fluid (C57BL/6 mice [2]; iNOS−/− mice): 1.66±0.06% | Effect of serial dilutions on NO production (peritoneal exudate cells): blocked NO production
